The source of these data is patent US10976310B2, “Ligand identification by co-fractionation” (MAX-PLANCK-GESELLSCHAFT ZUR FÖRDERUNG DER WISSENSCHAFTEN …, priority 2016, dated 2021).

Values joined by “and” are separate entries in the source; they are usually repeats but may differ in a detail not shown here. Identical values can stand only once.

In general, Kd refers to the equilibrium constant for the complex coming apart.

One assay addresses T1, Rbp47b (Arabidopsis thaliana, UniProt Q0WW84).
T1 sequence (Q0WW84 1-435): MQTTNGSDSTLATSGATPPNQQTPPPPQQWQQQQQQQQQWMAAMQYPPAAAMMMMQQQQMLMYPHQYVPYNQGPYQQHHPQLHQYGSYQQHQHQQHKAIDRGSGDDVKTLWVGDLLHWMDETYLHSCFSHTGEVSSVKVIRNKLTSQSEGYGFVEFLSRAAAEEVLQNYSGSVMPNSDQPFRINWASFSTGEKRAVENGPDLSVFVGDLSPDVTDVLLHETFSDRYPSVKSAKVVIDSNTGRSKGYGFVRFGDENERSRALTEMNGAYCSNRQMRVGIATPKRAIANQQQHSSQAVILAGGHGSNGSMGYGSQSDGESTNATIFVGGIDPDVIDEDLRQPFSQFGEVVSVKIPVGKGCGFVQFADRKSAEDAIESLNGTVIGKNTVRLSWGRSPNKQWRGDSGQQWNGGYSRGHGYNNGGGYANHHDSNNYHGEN
The experiment in a line: MST measurement of ligand binding to recombinant Rbp47b. The following applies: His6-Rbp47b from E. coli, n=3. An excerpt: We therefore attempted to determine the in vitro binding affinity biophysically using micro-scale thermophoresis (MST) (Jerabek-Willemsen et al. (2011) Molecular interaction studies using microscale thermophoresis. Assay Drug Dev Technol 9: 342-353). MST exploits the effect of size, charge, and hydration shell on the movement of molecules in a temperature gradient. Complex formation resulting in alteration of at least one of the three parameters leads to differential movement, from which the binding affinity can be determined. For the purpose of the MST experiment, Rbp47b was expressed in and purified from E. coli. […] The measured Kd value also corresponds to the ˜20 μM concentration of 2′,3′-cAMP measured in the native Arabidopsis lysate (FIG. 11B).
TIA1 protein was purchased from Origene (Herford, Germany). Rbp47b was cloned as a C-terminal GFP fusion (to increase protein solubility) into the E. coli expression vector pDEST14 containing His6-tag at the N-terminal of the Gateway (Karlsruhe, Germany) cassette. […]
Next day, cells were disrupted with an Avestin (Mannheim, Germany) EmulsiFlex C3 homogenizer and the protein was purified using imidazole-gradient purification in Ni-NTA agarose (Qiagen 34080, Hilden, Germany). […] Protein purity was assessed by SDS-PAGE and protein identification was done using western blot using anti-His6 antibodies. […]

Another assay concerns the target T2, Rbp47b self-assembly (Arabidopsis thaliana, UniProt Q0WW84).
T2 construct: GFP (C, cleaved yes); made in house; host or cells: E. coli Rosetta
T2 sequence (Q0WW84 1-435): T1 sequence (Q0WW84 1-435)
The assay can be described thus: MST measurement of Rbp47b self-assembly. Format: binding. To be noted: 50 μM 2′,3′-cAMP; in its absence Kd=127.87 nM (128 nM); read-out: Kd of Rbp47b self-assembly in the presence of the ligand. An excerpt: In plants 2′,3′-cAMP levels increase rapidly under wounding stress (Van Damme (2014) (loc. cit.)). To test whether 2′,3′-cAMP level changes in other stress conditions we queried metabolomics date from stress time-course of (Caldana et al. (2011) High-density kinetic analysis of the metabolomic and transcriptomic response of Arabidopsis to eight environmental conditions. Plant J 67: 869-884). Shortly, mature Col-0 rosettes (prior bolting) grown in the control environment, were transferred into combinations of light (low light, high light, darkness) and temperature stress conditions (heat and cold) and sampled in multiple time-points until 24 h following stress onset. […] If the interaction takes place in the cytosol, where both, Rbp47b and 2′,3′-cAMP are present, one would expect that 2′,3′-cAMP might influence stress granules formation, meaning oligomerization of Rbp47b. Due to the lack of commercially available membrane permeable derivative of 2′,3′-cAMP molecule, we were unable to follow stress granules formation in vivo. However we tested this hypothesis directly by determining the oligomerization of Rbp47b in the presence and absence of saturating amounts of 2′,3′-cAMP by MST. […] 2′,3′-cAMP, besides being the degradation product of mRNA, could play a regulatory role by influencing the oligomerization of the Rbp47b protein, in turn influencing the formation of SGs. […]

The target in another assay is T3, TIA1 self-assembly (Homo sapiens, UniProt P31483).
T3 construct: purchased Origene (Herford, Germany)
T3 sequence (P31483 1-386): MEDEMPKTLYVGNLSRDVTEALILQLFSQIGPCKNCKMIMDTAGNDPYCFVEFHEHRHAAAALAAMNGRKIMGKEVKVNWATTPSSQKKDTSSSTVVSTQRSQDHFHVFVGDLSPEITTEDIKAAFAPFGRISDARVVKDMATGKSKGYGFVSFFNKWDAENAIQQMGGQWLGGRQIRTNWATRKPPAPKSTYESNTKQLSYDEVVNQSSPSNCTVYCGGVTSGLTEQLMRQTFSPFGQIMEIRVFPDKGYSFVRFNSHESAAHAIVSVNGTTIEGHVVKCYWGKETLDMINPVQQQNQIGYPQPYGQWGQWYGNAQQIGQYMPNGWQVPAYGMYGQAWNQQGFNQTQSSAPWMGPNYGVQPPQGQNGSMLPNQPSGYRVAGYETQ
The experiment in a line: MST measurement of TIA1 self-assembly. It is filed as binding. To be noted: 500 μM 2′,3′-cAMP; in its absence Kd=36.28 nM (36 nM); read-out: Kd of TIA1 self-assembly in the presence of the ligand. As to the method:
Expecting such a basic role of 2′,3′-cAMP to be conserved, we performed similar analysis with TIA1, the human functional homolog of Rbp47b. TIA1 was labeled and its interaction with 2′,3′-cAMP was determined using MST.
MST measurements were performed using a Monolith NT.115 instrument (NanoTemper, München, Germany). Capillaries were loaded into the instrument as sets of 13-16 point ligand titrations. Proteins (Rb47b and TIA1) were labeled in phosphate buffer (PBS) using Monolith™ protein labeling kit RED-NHS (amine reactive; MO-L001) according to the manufacturers instruction. Excitation was optimized by varying the LED power to yield emission intensities above 200 AU, corresponding to 10-50 nM labeled protein. Monolith power was set to 60%. Ligands [2′,3′-cAMP (Sigma A9376)] and [3′,5′-cAMP (Sigma A6885)] were dissolved in PBS. 0.5% Tween and premium coated capillaries were used to prevent sticking. Non-labeled TIA1 and Rbp47b were used as ligands in the self-assembly experiments. MO Affinity Analysis software was used to analyze (Kd calculation) and visualize the data. Presented data are from 2-3 technical replicates.

Turning to `Nc1ncnc2c1ncn2[C@@H]1O[C@H](CO)[C@H]2OP(=O)(O)O[C@H]21` [2′,3′-cAMP], the Kd at Rbp47b is 1.02 µM and 1 µM; at Rbp47b self-assembly, 0.0089 µM and 0.009 µM; on TIA1 self-assembly, 0.0206 µM and 0.02 µM.
